Data on 10 compounds can be found in PubChem BioAssay (NCI).

Some test systems named below: ACHN renal; COLO 205 colon; HOP-92 NSCLC; RXF 393 renal; SF-268 CNS; SF-539 CNS; SN12C renal; SW-620 colon; TK-10 renal; U251 CNS.
Common to all, as to assay: DTP human tumour cell line panel, 48 h

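How tested: cells in 96-well plates exposed to compound for 48 hours at five concentrations. GI50 is the concentration that inhibits growth by half. TGI denotes the concentration required for complete inhibition of growth.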

With `Cc1cc(Cl)ccc1NC(=O)C(=O)Cc1nc2ccc(C(=O)c3ccccc3)cc2[nH]c1=O`, the TGI with ACHN renal, with COLO 205 colon, with HOP-92 NSCLC, with RXF 393 renal, with SF-268 CNS and with SF-539 CNS was over 100 µM in each case. The TGI in the test with SN12C renal, with SW-620 colon and in the test with TK-10 renal was over 100 µM each time.
With `C/C(=N/N(C=O)C[n+]1ccccc1)C(CN(CC(C)C)CC(C)C)C(=O)Nc1ccc(C)cc1C` (stereo not drawn), the TGI in the test with ACHN renal, with COLO 205 colon, in the test with HOP-92 NSCLC, in the test on RXF 393 renal, with SF-268 CNS and in the test on SF-539 CNS was over 100 µM throughout. The TGI in the test with SN12C renal, with SW-620 colon and in the test with TK-10 renal was over 100 µM throughout.
Turning to `CC12CC3(C)CC(C)(C1)CC(N=[N+]=[N-])(C2)C3`, the TGI in the test on ACHN renal, in the test with COLO 205 colon, with HOP-92 NSCLC, in the test on RXF 393 renal, in the test with SF-268 CNS and in the test with SF-539 CNS was over 100 µM throughout. Besides, the TGI with SN12C renal, with SW-620 colon, in the test on TK-10 renal and with U251 CNS was over 100 µM each time.
`Cc1cc2c(C(C)C)c(O)c(O)c(C=Nc3cc(C(F)(F)F)ccc3Cl)c2c(O)c1-c1c(C)cc2c(C(C)C)c(O)c(O)c(C=Nc3cc(C(F)(F)F)ccc3Cl)c2c1O`: the TGI (in general, the concentration giving total growth inhibition) with ACHN renal is 79.4 µM; in the test on COLO 205 colon it was 90.5 µM; in the test on HOP-92 NSCLC, 53.5 µM; in the test with RXF 393 renal, 97.7 µM; with SF-268 CNS, over 100 µM; with SF-539 CNS it was over 100 µM. The total growth inhibition concentration (TGI) is over 100 µM in the test with SN12C renal, over 100 µM with SW-620 colon, over 100 µM in the test on TK-10 renal and 72.2 µM in the test on U251 CNS.
Take `C=C(C)C1CC2C(C)=C(OC(C)=O)C1n1c(=O)c3cc4ccccc4cc3c(=O)n12` (stereo not drawn): the TGI in the test on ACHN renal is over 100 µM; in the test with COLO 205 colon it was over 100 µM; in the test on HOP-92 NSCLC, over 100 µM; in the test on RXF 393 renal, over 90.9 µM; with SF-268 CNS it was over 100 µM; with SF-539 CNS it was over 100 µM. In addition, the TGI in the test on SN12C renal, in the test on SW-620 colon, in the test with TK-10 renal and with U251 CNS was over 100 µM throughout.
Turning to `Cc1cc(N(CCNc2ccnc3cc(Cl)ccc23)Cc2ccc3c(c2)OCO3)nc(N2CCN(C)CC2)n1`, the GI50 (in general, the concentration giving 50% growth inhibition) in the test with ACHN renal was 2.52 µM; in the test on COLO 205 colon, 1.86 µM; in the test on HOP-92 NSCLC, 1.29 µM; in the test on RXF 393 renal, 1.43 µM; in the test with SF-268 CNS it was 2.42 µM; in the test with SF-539 CNS, 1.78 µM. The GI50 with SN12C renal was 3.77 µM; in the test on SW-620 colon it was 2.08 µM; with TK-10 renal it was 1.81 µM; in the test with U251 CNS, 2.01 µM. Also, the concentration for total growth inhibition (TGI) in the test with ACHN renal came to 5.78 µM; in the test on COLO 205 colon it was 3.69 µM; in the test with HOP-92 NSCLC, 2.96 µM; in the test with RXF 393 renal, 3.17 µM; in the test with SF-268 CNS, 7.89 µM; in the test with SF-539 CNS, 3.33 µM. Further, the total growth inhibition concentration (TGI) was determined as 14.2 µM with SN12C renal, 5.41 µM with SW-620 colon, 3.61 µM in the test on TK-10 renal and 4.25 µM in the test with U251 CNS.
Consider `COc1ccc(C2SC(N)=Nc3c2c(C)nn3C(=O)c2ccc(Cl)cc2)cc1OC` (stereo not drawn), for which the TGI in the test with ACHN renal, in the test on COLO 205 colon, with HOP-92 NSCLC, in the test with RXF 393 renal, with SF-268 CNS and in the test on SF-539 CNS was over 10 µM in each case. For the same compound, the TGI in the test on SN12C renal, in the test on SW-620 colon, in the test on TK-10 renal and in the test with U251 CNS was over 10 µM throughout.
As for `COC(=O)C1=C(OC(=O)c2ccc(Cl)cc2)C(C(=O)OC)[C@@]2(O)[C@@H](C(=O)OC)C(c3ccccc3C(F)(F)F)C[C@@H]1[C@@H]2C(=O)OC` (stereo partly drawn), the GI50 is 3.19 µM with ACHN renal; 3.31 µM in the test on COLO 205 colon; 6.27 µM with HOP-92 NSCLC; 2.14 µM with RXF 393 renal; 11 µM with SF-268 CNS; 5.13 µM in the test on SF-539 CNS. Moreover, the GI50 in the test on SN12C renal was 2.08 µM; in the test with SW-620 colon, 3.83 µM; in the test with TK-10 renal, 33 µM; in the test with U251 CNS it was 3.26 µM. In addition, the TGI in the test with ACHN renal was over 100 µM; in the test on COLO 205 colon it was over 100 µM; with HOP-92 NSCLC, over 100 µM; with RXF 393 renal, 5.43 µM; in the test with SF-268 CNS, over 100 µM; with SF-539 CNS, over 100 µM. The TGI was 6.66 µM with SN12C renal, 21.1 µM with SW-620 colon, 78.8 µM in the test with TK-10 renal and 21.4 µM in the test on U251 CNS.
Turning to `Cc1ccc(C(=O)/C(=C/c2ccc([N+](=O)[O-])cc2)S(=O)Cc2ccccc2)cc1` (stereo not drawn), the GI50 in the test on ACHN renal is 1.56 µM; in the test on COLO 205 colon, 1.47 µM; in the test with HOP-92 NSCLC, 1.41 µM; with RXF 393 renal it was 1.47 µM; in the test on SF-268 CNS, 1.71 µM; in the test with SF-539 CNS it was 1.69 µM. Also, the GI50 in the test with SN12C renal was 1.71 µM; in the test with SW-620 colon, 0.916 µM; in the test on TK-10 renal it was 1.78 µM; in the test with U251 CNS, 1.02 µM. Further, the TGI in the test on ACHN renal was determined as 2.92 µM; with COLO 205 colon, 3.16 µM; in the test on HOP-92 NSCLC it was 3.22 µM; in the test with RXF 393 renal, 3 µM; in the test with SF-268 CNS it was 3.72 µM; with SF-539 CNS, 3.1 µM. Also, the TGI is 3.4 µM in the test with SN12C renal, 2.94 µM in the test on SW-620 colon, 3.26 µM in the test with TK-10 renal and 2.24 µM in the test with U251 CNS.
For the compound `CSc1nc2c(c(O)c(C)c(=O)n2C2OC(COC(C)=O)C(OC(C)=O)C(OC(C)=O)C2OC(C)=O)c(=O)n1C` (stereo not drawn), the TGI in the test with ACHN renal, in the test with COLO 205 colon, with HOP-92 NSCLC, in the test with RXF 393 renal, with SF-268 CNS and in the test on SF-539 CNS was over 100 µM throughout. The TGI in the test on SN12C renal, in the test on SW-620 colon, in the test on TK-10 renal and in the test on U251 CNS was over 100 µM each time.
